Here are results for two compounds from patent US4361573A, “α,α-Diaryl-β-(tert-amino)-propanols and diuretic pharmaceutical compositions containing them” (Temmler AG, priority 1974, dated 1982).

Like-named read-outs stand apart in the source and are kept apart here.

The conditions of data set [1]: mice, oral; literature value; cited from earlier work.
Data set [2] can be described thus: comparison of toxicity in mice: oral LD50 by the Lichtfiel & Wilcoxon method. To be noted: mouse, in vivo, observation period 7 days, 95% confidence limit in brackets, read-out: LD50. It counts as in vivo. An excerpt: In Table 3 the mean lethal doses for mice, administered orally (LD50 determination by the […] & WILCOXON method - J.Pharmacol. Exp. Ther. 96,98 (1949)) are compared.

Data set [3] in a line: saluretic efficiency test in rats: elimination of water, sodium, chloride and potassium in 6 h urine after oral dosing. In kind it is in vivo. The following applies: rats, oral; for change in vivo at 40 µmol/kg / change in vivo at 80 µmol/kg: Rattus norvegicus. How it is done: In order to test the saluretic efficiency of the compounds of the invention rats having a weight of 150 to 200 g were used. The animals were kept without food, but not without drinking water, for 15 hours before the beginning of the test. The test substances were administered to groups of four rats, of substantially equal weight, with a rigid stomach probe in a 1% methyl cellulose slime. The dose required per 100 g animal (unit dosage in μmol/kg body weight) was contained in one ml. Following the administration of the substance the rats were given 5 ml 0.9% sodium chloride solution per 100 g body weight p.o. and placed in a diuresis funnel after manually emptying the bladder. Urine was collected for 6 hours in an airconditioned chamber at 24°±1° C. and a relative air humidity of 50±5%. The diuretic effect of a particular dose was tested on at least two, but more frequently however on four to eight groups of rats. Two sodium chloride controls were also used for each test day.
At the end of the collecting periods the volumes of urine discharged per group were noted and the pH value and also the content of sodium, potassium (flame-photometrically) and chloride (measured argentometrically with the determination of the end point potentiometrically) were determined.
From the analysis results the quantities of Na^+, K^+ and Cl^- eliminated were calculated in […] body weight, and the values thus obtained compared with those of the control animals.
Means values and twice the standard deviation were calculated from the data for the sodium chloride controls, in order to determine the normal range. Then, for the values found with the test substances, the percentage variations from the average in respect of these parameters were calculated and tabulated. In this connection, with the results given in Table 1, the upper limit of the normal range, which is defined as the mean value plus twice the standard deviation, was selected as the reference quantity for the variations. In this way relevant hyper-eliminations could clearly be recognised.
In Table 2, the mean percentage variations in potassium elimination after administration of the compounds in accordance with the invention are compared with the mean value of the potassium elimination in the case of the sodium chloride controls. At the same time the […] ratio is given which provides conclusive evidence of the effective saluretic property. The larger this quotient is, then the more sodium than potassium is eliminated in proportion.

Turning to `N=C(N)NC(=O)c1nc(Cl)c(N)nc1N` [N-amidino-3.5-diamino-6-chloropyrazinocarboxamide], in data set [1], the LD50 was 70 mg/kg.

For `COc1cc(C)c(C(O)(c2ccccc2)C(C)N2CCCC2)cc1C(C)(C)C` (stereo not drawn) [T 1856, 1-(4'-methoxy-2'-methyl-5'-tert-butylphenyl)-1-phenyl-2-pyrrolidino-propan-1-ol], the LD50 in data set [2] is 2200 mg/kg. In addition, the change in vivo at 40 µmol/kg in data set [3] (6 h, 40 μmol/kg body wt., relative to mean K+ elimination of the controls, read-out: Mean percentage variation in the elimination of potassium) amounted to 25.5%; in data set [3] (40 μmol/kg body wt., deviation from control mean plus twice the standard deviation, 6 h urine, read-out: Mean percentage variation in the elimination of Chloride), 19.4%; in data set [3] (40 μmol/kg body wt., deviation from control mean plus twice the standard deviation, 6 h urine, read-out: Mean percentage variation in the elimination of H2O), 41%; in data set [3] (40 μmol/kg body wt., deviation from control mean plus twice the standard deviation, 6 h urine, read-out: Mean percentage variation in the elimination of Sodium), 30.6%. Besides, the change in vivo at 80 µmol/kg in data set [3] (6 h, 80 μmol/kg body wt., relative to mean K+ elimination of the controls, read-out: Mean percentage variation in the elimination of potassium) came to 22.4%; in data set [3] (80 μmol/kg body wt., deviation from control mean plus twice the standard deviation, 6 h urine, read-out: Mean percentage variation in the elimination of Chloride), 32.5%; in data set [3] (80 μmol/kg body wt., deviation from control mean plus twice the standard deviation, 6 h urine, read-out: Mean percentage variation in the elimination of H2O) it was 59.7%; in data set [3] (80 μmol/kg body wt., deviation from control mean plus twice the standard deviation, 6 h urine, read-out: Mean percentage variation in the elimination of Sodium), 47.6%. The “Quotient Na/K” value in data set [3] (40 μmol/kg body wt.) came out at 6.18; in data set [3] (80 μmol/kg body wt.) it was 7.16.
